Measurements taken from patent publication US11111217B2, “2-arylbenzimidazoles as Ppargc1a activators for treating neurodegenerative diseases” (The Board of Trustees of the Leland Stanford Junior …, priority 2018, dated 2021).
Several values for one entry are separate records, joined by “and”; a condition that tells them apart may be missing. Equal entries are not always repeated.

Columns and labels:
[1] = Microsome stability assay, human liver microsomes; format: in vitro ADME; conditions: pH 7.4, 1 μM test compound, NADPH 1 mM, 37° C., 0-40 mins, read-out: HLM t1/2
Method: (§1) Microsome Stability Assay Protocol
(§2) Human liver microsomes (Corning #452117 lot 38291) or Mouse liver microsomes (Corning #452701, lot #6328004) were separately combined at a final concentration of […] with KxPO4 pH 7.4 (100 mM), MgCl2 (10 mM), and test compound (1 μM) and pre-incubated (10 min, 37° C.). Next, NADPH (1 mM) was added to begin reactions (total volume 100 μL). At various time points (0, 10, 20, and 40 mins), reactions were quenched with Clem stop solution (100 μL, 625 ng/mL) (Cyprotex) in Acetonitrile. Samples were centrifuged at 4000 g for 20 mins, diluted (75 μL into 75 μL 0.1% formic acid in water), and analyzed by LC-MS/MS.

[2] = Caco-2 permeability assay; conditions: human, Caco-2, pH 7.4, with elacridar (concentration not stated)
[3] = system: TNF-α production by BV2 cells or PBMC; experiment: Cellular assay to measure TNF-α inhibition (LPS-stimulated, ELISA); format: cell-based, murine (BV2) or human (PBMC); conditions: BV2 cells or PBMC (not specified), LPS 100 ng/ml over 24 hours, relative to DMSO vehicle; compound concentration not stated
From the text: Oxidative metabolism exerts an anti-inflammatory effect on myeloid cell phenotype (O'Neill L A, Front Immunol. 2014) and Ppargc1a can promote this energy metabolic pathway (Spiegelman BM, Novartis Found Symp. 2007). Thus, pharmacological activation of Ppargc1a would be expected to inhibit the inflammatory response of myeloid cells. This phenomenon can be measured in cultures by a TNF-α inhibition assay.
Cellular Assay Protocol to Measure TNF-α Inhibition
The murine myeloid cell line BV2 or human peripheral blood mononuclear cells (PBMC) are cultured in RPMI 1640 media (Cat #11875119, Gibco) supplemented with 10% fetal bovine serum and 1% L-glutamine 1% penicillin. These cells are then stimulated with 100 ng/ml of lipopolysaccharide (LPS, O111:B34, Cat # L2630, Sigma) over 24 hours. LPS stimulation results in the secretion of the inflammatory cytokine TNF-α by BV2 cells or PBMC, which can be quantified by ELISA in culture supernatant samples per manufacturer's protocol (Cat #558273 for BV2 and Cat #558299 for PBMC, BD Biosciences). To determine whether exampl compounds 1-78 inhibit TNF-α production by BV2 cells or PBMC, the cells were cultured in the presence of the compounds at different concentrations, and fold reduction in TNF-α production relative to TNF-α production by the same cells cultured in the presence of dimethylsulfoxide (as vehicle control) was determined.

Caco-2 cells = experiment: Caco-2 permeability assay; conditions: 10 μM, HBSS pH 7.4, 37° C., 2 h; for Caco2 A → B: without elacridar
Method: Caco-2 Permeability Assay Protocol
Caco-2 cells were maintained in DMEM in an atmosphere of 5% CO2. For transport experiments 5×10^5 cells/well of were seeded on polycarbonate filter inserts and allowed to grow and differentiate for 21±4 days before the cell monolayers were used for experiments. Apparent permeability coefficients were determined for A→B and B→A directions with and without the presence of elacridar as a transporter inhibitor. Up to three test items and reference compounds were dissolved in Hank's balanced salt solution at pH 7.4 to yield a final concentration of 10 μM.
The assays were performed in HBSS containing 25 mM HEPES (pH 7.4) at 37° C. Prior to the study, the monolayers were washed in prewarmed HBSS. At the start of the experiments prewarmed HBSS containing the test items was added to the donor side of the monolayer and HBSS without test items was added to the receiver side. Aliquots of the receiver side were taken over the 2 h incubation period; aliquots of the donor side were taken at 0 hand 2 h. Aliquots were diluted with an equal volume of methanol/water with 0.1% formic acid containing the internal standard. The mixture was analyzed by LC-MS/MS. The apparent permeability coefficients (Papp) were calculated using the formula: Papp=(dCrec/dt)/(A×C0,donor)]×106 with dCrev/dt being the change in concentration in the receiver compartment with time, C0,donor the concentration in the donor compartment at time 0, and A the area of the compartment with the cells.

[4] = Microsome stability assay, mouse liver microsomes; format: in vitro ADME; conditions: pH 7.4, 1 μM test compound, NADPH 1 mM, 37° C., 0-40 mins, read-out: MLM t1/2
Method: as §1, §2

| Structure (SMILES) | half-life at 1 μM [1] | Papp A→B at 2 h, 10 μM [2] | TNF α Inhibition [3] | Caco2 B → A (Caco-2 cells) | Caco2 A → B (Caco-2 cells) | half-life at 1 μM [4] | Caco2 A → B w/ elacridar (Caco-2 cells; with elacridar as transporter inhibitor) |
| --- | --- | --- | --- | --- | --- | --- | --- |
| CC(=O)OCn1c(-c2ccc(C(C)(C)C)cc2)nc2ccccc21 [Example 1-P, (2-(4-(tert-Butyl)phenyl)-1H-benzo[d]imidazol-1-yl)methyl acetate] | 10.1 min | 0.105 ×10⁻⁶ cm/s |  |  |  |  |  |
| CC(C)(C)c1ccc(-c2nc3cnccc3[nH]2)cc1 [Example 2, 2-(4-(tert-Butyl)phenyl)-1H-imidazo[4,5-c]pyridine] |  | 2.15 ×10⁻⁶ cm/s | A (A = >80% inh.) | 57.1 nm/s | 24.7 nm/s and 22.3 nm/s |  |  |
| CCCC(=O)OCn1c(-c2ccc(C(C)(C)C)cc2)nc2ccccc21 [Example 2-P, (2-(4-(tert-Butyl)phenyl)-1H-benzo[d]imidazol-1-yl)methyl butyrate] |  | 0.0282 ×10⁻⁶ cm/s |  |  | 0.532 nm/s and 1.01 nm/s |  |  |
| CC(C)(C)c1ccc(-c2cn3ccccc3n2)cc1 [Example 5, 2-(4-tert-Butylphenyl)imidazo[1,2-a]pyridine] | 11.5 min | 0.858 ×10⁻⁶ cm/s | A (A = >80% inh.) |  | 9.86 nm/s | 8.4 min |  |
| CC(C)(C)c1ccc(-c2nc3ccccc3n2COP(=O)(O)O)cc1 [Example 10-P, Dihydrogen ((2-(4-(tert-butyl)phenyl)-1H-benzo[d]imidazol-1-yl)methyl) phosphate] | 159 min | 0.0014 ×10⁻⁶ cm/s |  |  | 0.0893, nm/s and 0.0565 nm/s | 159 min |  |
| COC(=O)n1c(-c2ccc(C(C)(C)C)cc2)nc2ccccc21 [Example 14-P, Methyl 2-(4-(tert-butyl)phenyl)-1H-benzo[d]imidazole-1-carboxylate] | 25.1 min | 0.251 ×10⁻⁶ cm/s |  |  | 9.33 nm/s and 6.35 nm/s | 5.5 min |  |
| COc1ccc(-c2nc3ccccc3[nH]2)cc1 [Example 21, 2-(4-Methoxy-phenyl)-1H-benzo[d]imidazole] | 4.2 min | 3.31 ×10⁻⁶ cm/s | A (A = >80% inh.) |  | 93.2 nm/s | 3.2 min |  |
| CC(C)(C)c1ccc(-c2nc3cc(C(F)(F)F)ccc3[nH]2)cc1 [Example 42, 2-(4-tert-Butylphenyl)-5-(trifluoromethyl)-1H-benzo[d]imidazole] | 83.8 min | 0.0408 ×10⁻⁶ cm/s | A (A = >80% inh.) | 1.2 nm/s | 0.878 nm/s | 110 min |  |
| CC(C)(C)c1ccc(-c2nc3cc(N)ccc3[nH]2)cc1 [Example 44, 2-(4-tert-Butylphenyl)-1H-benzo[d]imidazol-5-amine] | 42.5 min | 2.05 ×10⁻⁶ cm/s | A (A = >80% inh.) | 45.4 nm/s | 23.6 nm/s | 20.6 min |  |
| CC(C)(C)c1ccc(-c2nc3c(F)c(F)ccc3[nH]2)cc1 [Example 55, 2-(4-tert-Butylphenyl)-4,5-difluoro-1H-benzo[d]imidazole] | 20.6 min | 0.0693 ×10⁻⁶ cm/s | A (A = >80% inh.) | 9.94 nm/s | 4.27 nm/s | 21.4 min |  |
| CC(C)(C)c1ccc(-c2nc3c(C(F)(F)F)cccc3[nH]2)cc1 [Example 56, 2-(4-tert-Butylphenyl)-4-(trifluoromethyl)-1H-benzo[d]imidazole] | 103 min | 0.0849 ×10⁻⁶ cm/s | A (A = >80% inh.) | 1.73 nm/s | 0.748 nm/s | 23.2 min |  |
| CC(C)(C)c1ccc(-c2nc3c(F)cc(F)cc3[nH]2)cc1 [Example 57, 2-(4-tert-Butylphenyl)-4,6-difluoro-1H-benzo[d]imidazole] | 99.2 min | 0.13 ×10⁻⁶ cm/s | A (A = >80% inh.) | 8.42 nm/s | 11.1 nm/s | 46.7 min |  |
| CC(C)(C)c1cccc(-c2nc3ccccc3[nH]2)c1 [Example 58, 2-(3-tert-Butylphenyl)-1H-benzo[d]imidazole] | 6.9 min | 0.86 ×10⁻⁶ cm/s | A (A = >80% inh.) | 30.9 nm/s | 21 nm/s | 4.7 min |  |
| [2H]c1c([2H])c([2H])c2[nH]c(-c3ccc(C(C)(C)C)cc3)nc2c1[2H] [Example 60, 2-(4-tert-Butylphenyl)-4,5,6,7-tetradeuterio-1H-benzo[d]imidazole] | 14.3 min | 0.916 ×10⁻⁶ cm/s | A (A = >80% inh.) | 40.7 nm/s | 15.8 nm/s | 19.8 min |  |
| [2H]c1cc([2H])c2nc(-c3ccc(C(C)(C)C)cc3)[nH]c2c1 [Example 61, 2-(4-tert-Butylphenyl)-4,6-dideuterio-1H-benzo[d]imidazole] | 13.6 min | 1.06 ×10⁻⁶ cm/s | A (A = >80% inh.) |  | 15.5 nm/s | 23.8 min |  |
| CC(C)(C)c1ccc(-c2nc3c(F)c(F)c(F)c(F)c3[nH]2)cc1 [Example 63, 2-(4-tert-Butylphenyl)-4,5,6,7-tetrafluoro-1H-benzo[d]imidazole] | 59.8 min | 0.0336 ×10⁻⁶ cm/s | A (A = >80% inh.) | 1.31 nm/s |  | 132 min | 0.005 nm/s |
| c1ccc(-c2ccc(-c3nc4ccccc4[nH]3)cc2)cc1 [Example 65, 2-(4-Biphenyl)-1H-benzo[d]imidazole] |  |  | C (C = <50% inh.) |  |  |  |  |
| FC(F)(F)Oc1ccc(-c2nc3ccccc3[nH]2)cc1 [Example 66, 2-(4-Trifluoromethoxyphenyl)-1H-benzo[d]imidazole] |  |  | C (C = <50% inh.) |  |  |  |  |
| CCOc1ccc(-c2nc3ccccc3[nH]2)cc1 [Example 67, 2-(4-Ethoxyphenyl)-1H-benzo[d]imidazole] |  |  | C (C = <50% inh.) |  |  |  |  |
| CCCOc1ccc(-c2nc3ccccc3[nH]2)cc1 [Example 68, 2-(4-Propoxyphenyl)-1H-benzo[d]imidazole] |  |  | C (C = <50% inh.) |  |  |  |  |
| CC(C)Oc1ccc(-c2nc3ccccc3[nH]2)cc1 [Example 69, 2-(4-Isopropoxyphenyl)-1H-benzo[d]imidazole] |  |  | A (A = >80% inh.) |  |  |  |  |
| FC(F)Oc1ccc(-c2nc3ccccc3[nH]2)cc1 [Example 70, 2-(4-(Difluoromethoxy)phenyl)-1H-benzo[d]imidazole] |  |  | B (B = 50-80% inh.) |  |  |  |  |
| CC(C)(C)Oc1ccc(-c2nc3ccccc3[nH]2)cc1 [Example 71, 2-(4-tert-Butoxyphenyl)-1H-benzo[d]imidazole] |  |  | B (B = 50-80% inh.) |  |  |  |  |
| c1ccc(Oc2ccc(-c3nc4ccccc4[nH]3)cc2)cc1 [Example 72, 2-(4-Phenoxyphenyl)-1H-benzo[d]imidazole] |  |  | C (C = <50% inh.) |  |  |  |  |
| c1ccc(COc2ccc(-c3nc4ccccc4[nH]3)cc2)cc1 [Example 73, 2-(4-Benzyloxyphenyl)-1H-benzo[d]imidazole] |  |  | C (C = <50% inh.) |  |  |  |  |
| CC(C)(C)c1ccc(-c2nc3c(C(N)=O)cccc3[nH]2)cc1 [Example 74, 2-(4-tert-Butylphenyl)-1H-benzo[d]imidazol-4-carboxamide] |  |  | A (A = >80% inh.) |  |  |  |  |
| CC(C)(C)c1ccc(-c2nc3cc(C(N)=O)ccc3[nH]2)cc1 [Example 75, 2-(4-tert-Butylphenyl)-1H-benzo[d]imidazol-5-carboxamide] |  | 1.33 ×10⁻⁶ cm/s | A (A = >80% inh.) | 28.5 nm/s | 16 nm/s |  |  |
| COc1ccc(-c2nc3c(F)cc(F)cc3[nH]2)cc1 [Example 78, 4,6-Difluoro-2-(4-methoxyphenyl)-1H-benzo[d]imidazole] |  |  | C (C = <50% inh.) |  |  |  |  |
